Laboratory results as given in patent US10052385B2, “Formulations of bendamustine” (Eagle Pharmaceuticals, Inc., priority 2012, dated 2018).
Where a name gives a salt, the structure may show the parent alone. Read-outs that look alike come from different tables or passages of the source.

Assay: Solubility of bendamustine HCl in 0.9% saline with non-aqueous solubilizer (Example 1)
Type: physicochemical
Conditions: for solubility at 30 min: 22.5 °C; for solubility at 30 min / solubility at 24 h: thermodynamic from solid; for solubility at 24 h: 5 °C
Description: Essentially, an excess of bendamustine HCl was added to solvents comprising of various volume percent of the non-aqueous solubilizer in 0.9% saline, and allowed to equilibrate with shaking for 30 minutes at room temperature, or for 24 hours at refrigerated temperature. At the end of the equilibration step, the suspensions were filtered through a 0.2 micron filter to remove undissolved bendamustine, and the filtrate solutions analyzed for bendamustine HCl content using a HPLC assay; quantification was performed against a bendamustine HCl reference standard.

Compound `Cn1c(CCCC(=O)O)nc2cc(N(CCCl)CCCl)ccc21` [bendamustine HCl] has a solubility at 30 min (0.9% saline with 5 mg/ml monothioglycerol, saline or isotonic, Room temperature, API Source B, solvent also contained 5 mg/ml monothioglycerol, 100.0% Normal Saline, 0.0% Non-aqueous Solubilizer, read-out: Solubility of bendamustine HCl) of ~3300 µg/mL, a solubility at 24 h (0.9% saline, saline or isotonic, 5° C., API Source A, 100.0% Normal Saline, 0.0% Non-aqueous Solubilizer (90:10 PEG 400/PG), read-out: Solubility of bendamustine HCl) of 1180 µg/mL and a solubility at 30 min (0.9% saline, saline or isotonic, Room temperature, API Source A, 100.0% Normal Saline, 0.0% Non-aqueous Solubilizer (90:10 PEG 400/PG), read-out: Solubility of bendamustine HCl) of 3460 µg/mL. For the same compound, the solubility at 24 h (aqueous with cosolvent or surfactant or cyclodextrin, 5° C., API Source A, 80.0% Normal Saline, 20.0% Non-aqueous Solubilizer (90:10 PEG 400/PG), read-out: Solubility of bendamustine HCl) was 3820 µg/mL, the solubility at 24 h (aqueous with cosolvent or surfactant or cyclodextrin, 5° C., API Source A, 82.5% Normal Saline, 17.5% Non-aqueous Solubilizer (90:10 PEG 400/PG), read-out: Solubility of bendamustine HCl) was 3330 µg/mL and the solubility at 24 h (aqueous with cosolvent or surfactant or cyclodextrin, 5° C., API Source A, 85.0% Normal Saline, […] Non-aqueous Solubilizer (90:10 PEG 400/PG), read-out: Solubility of bendamustine HCl) was 2900 µg/mL. For the same compound, the solubility at 24 h (aqueous with cosolvent or surfactant or cyclodextrin, 5° C., API Source A, 90.0% Normal Saline, 10.0% Non-aqueous Solubilizer (90:10 PEG 400/PG), read-out: Solubility of bendamustine HCl) was 2430 µg/mL, the solubility at 24 h (aqueous with cosolvent or surfactant or cyclodextrin, 5° C., API Source A, 95.0% Normal Saline, 5.0% Non-aqueous Solubilizer (90:10 PEG 400/PG), read-out: Solubility of bendamustine HCl) was 2020 µg/mL and the solubility at 24 h (aqueous with cosolvent or surfactant or cyclodextrin, refrigerated, 19.4% of the non-aqueous component in the final 100 ml admixture, read-out: solubility of bendamustine HCl in final admixture) was ~3800 µg/mL. For the same compound, the solubility at 30 min (aqueous with cosolvent or surfactant or cyclodextrin, Room temperature, API Source A, 70.0% Normal Saline, 30.0% Non-aqueous Solubilizer (90:10 PEG 400/PG), read-out: Solubility of bendamustine HCl) was 12000 µg/mL, the solubility at 30 min (aqueous with cosolvent or surfactant or cyclodextrin, Room temperature, API Source A, 80.0% Normal Saline, 20.0% Non-aqueous Solubilizer (90:10 PEG 400/PG), read-out: Solubility of bendamustine HCl) was 8640 µg/mL and the solubility at 30 min (aqueous with cosolvent or surfactant or cyclodextrin, Room temperature, API Source A, 85.0% Normal Saline, […] Non-aqueous Solubilizer (90:10 PEG 400/PG), read-out: Solubility of bendamustine HCl) was 7010 µg/mL. For the same compound, the solubility at 30 min (aqueous with cosolvent or surfactant or cyclodextrin, Room temperature, API Source A, 90.0% Normal Saline, 10.0% Non-aqueous Solubilizer (90:10 PEG 400/PG), read-out: Solubility of bendamustine HCl) was 5630 µg/mL, the solubility at 30 min (aqueous with cosolvent or surfactant or cyclodextrin, Room temperature, API Source A, 95.0% Normal Saline, 5.0% Non-aqueous Solubilizer (90:10 PEG 400/PG), read-out: Solubility of bendamustine HCl) was 4430 µg/mL and the solubility at 30 min (aqueous with cosolvent or surfactant or cyclodextrin, room temperature, 16.1% of the non-aqueous component in the final 50 ml admixture, read-out: room temperature solubility of bendamustine HCl in final admixture) was ~6500 µg/mL. For the same compound, the solubility at 30 min (saline or isotonic, Room temperature, API Source A, 97.5% Normal Saline, 2.5% Non-aqueous Solubilizer (90:10 PEG 400/PG), read-out: Solubility of bendamustine HCl) was 3990 µg/mL, the solubility at 30 min (saline or isotonic, Room temperature, API Source B, solvent also contained 5 mg/ml monothioglycerol, 97.5% Normal Saline, 2.5% Non-aqueous Solubilizer, read-out: Solubility of bendamustine HCl) was 3890 µg/mL and the “Solubility of bendamustine HCl” value (Room temperature, API Source B, solvent also contained 5 mg/ml monothioglycerol, 70.0% Normal Saline, 30.0% Non-aqueous Solubilizer) was 11407 µg/mL. The “Solubility of bendamustine HCl” value (Room temperature, API Source B, solvent also contained 5 mg/ml monothioglycerol, 80.0% Normal Saline, 20.0% Non-aqueous Solubilizer, HCl) was 8492 µg/mL, the “Solubility of bendamustine HCl” value (Room temperature, API Source B, solvent also contained 5 mg/ml monothioglycerol, 82.5% Normal Saline, 17.5% Non-aqueous Solubilizer) was 7641 µg/mL and the “Solubility of bendamustine HCl” value (Room temperature, API Source B, solvent also contained 5 mg/ml monothioglycerol, 85.0% Normal Saline, […] Non-aqueous Solubilizer) was 6554 µg/mL. For the same compound, the “Solubility of bendamustine HCl” value (Room temperature, API Source B, solvent also contained 5 mg/ml monothioglycerol, 87.5% Normal Saline, 12.5% Non-aqueous Solubilizer) was 5825 µg/mL, the “Solubility of bendamustine HCl” value (Room temperature, API Source B, solvent also contained 5 mg/ml monothioglycerol, 90.0% Normal Saline, 10.0% Non-aqueous Solubilizer) was 5351 µg/mL and the “Solubility of bendamustine HCl” value (Room temperature, API Source B, solvent also contained 5 mg/ml monothioglycerol, 92.5% Normal Saline, 7.5% Non-aqueous Solubilizer) was 4742 µg/mL. The “Solubility of bendamustine HCl” value (Room temperature, API Source B, solvent also contained 5 mg/ml monothioglycerol, 95.0% Normal Saline, 5.0% Non-aqueous Solubilizer) was 4204 µg/mL.
